Laboratory results: PMC9738107, “Targeting of the ELR+CXCL/CXCR1/2 Pathway Is a Relevant Strategy for the Treatment of Paediatric Medulloblastomas” (Cells, 2022)

Assays:
Format in all cases: cell-based, human
ONS-76 cells = assay: Clonogenic assay
Description: (§1) Figure 4 C29 reduces proliferation, migration, and invasion of naïve MB cells. (A) Proliferation of Daoy, ONS-76, HD-MB03, and D341Med wild-type cells after treatment with 1 μM C29 or the control (DMSO), n = 3. (B) Clonogenic assay on Daoy (n = 4), ONS-76 (n = 3) and HD -MB03 (n = 5) cells after treatment with control (DMSO) or C29 (1 μM or 2.5 μM). Scale = 500 μm. (C) Cell migration through the Boyden chamber of Daoy and ONS-76 cells specifically attracted by 200 ng/mL CXCL8. Results are expressed as percentage of control (DMSO) (n = 3). Scale = 1000 μm. (D) Spheroid invasion using 3D culture cell assays on Daoy (n = 4) and ONS-76 cells (n = 3) treated with control (DMSO) or C29 at a concentration of 1 μM on day 0, 1, and 2. Results are expressed as percentage of day 0, n = 4. Scale = 500 μm. Statistics were performed using Student t-test for 2 comparisons only or ANOVA test for multiple comparisons. * p < 0.05, ** p < 0.01, *** p < 0.001. […]
(§2) each month by using PlasmoTest Kit (#10L07‐MM, InvivoGen, Toulouse, France). Daoy and ONS‐76 belong to the Shh genetic subgroup, D341‐Med and HD‐MB03 to group 3. […]
(§3) 150 Daoy/DR1/DR2/ ONS ‐ 76 and 300 HD ‐ MB03/HR1/HR2 cells were seeded in trip‐ licate in 6‐well plates in the presence or absence of treatment (1 or 2∙5μM […] or DMSO as control). On day 9 (Daoy/ONS‐76) and day 11 (HD ‐MB03), cells were fixed in ice‐cold absolute ethanol (Sigma) for 20 min, washed with PBS and then stained with Giemsa 50% for 30 min. The number of clones was quantified using ImageJ software. We only considered clones containing more than 50 cells. […]
Violet. […]
(§4) 5000 cells were plated in 48 multi‐well plates coated with agarose 0∙8%. After two days, spheroids were mixed with 100μl of matrigel mix (200μl of matrigel (Corning Mat‐ rigel Matrix, Fontenay‐sous‐Bois, France), 100 μl collagen I (8 mg/ml, Corning), 80 μl HEPES 1M and 320μl respective medium) in 12 multi‐well plates. […]

Daoy cells = assay: Clonogenic assay; details: 1 µM
Description: as §1, §2, §3
Violet. […]
as §4

HD-MB03 cells = assay: Clonogenic assay; details: HD-MB03, 1 µM
Description: as §1, §2, §3
Violet. […]
as §4

[1] = system: ONS-76 spheroids expressing DsRed on mouse cerebellar slices; assay: Ex vivo cerebellar organotypic model; details: 5 µM C29 daily for five days, after fourteen days
Text: (§5) To establish ex vivo cultures of cerebellar tissues, mouse cerebellums were surgically harvested and sectioned into 250 μm thick slices using a vibrating blade microtome (RRID:SCR_016495). To comply with the 3-R rule, we used supernumerary mice (aged 12 weeks) that were destined to be sacrificed. A spheroid formed from DsRed-expressing MB cells was then grafted onto each cerebellum slice. These organotypic co-culture models were placed on inserts and maintained as previously described. After daily exposure to C29 or DMSO for 5 consecutive days, tumour growth and invasion within the cerebellum slices were analysed over time using the JuLI™ Stage imaging system and the PHERAstar® FS multiplate reader (λex 580 nm/λem 620 nm–fluorescence signal acquisition with a 15 × 15 matrix scanning mode). […]
(§6) Figure 7 C29 is effective in ex vivo cerebellar organotypic model. […] (B) Spheroid growth was monitored by measuring DsRed fluorescence (PheraStar) over 14 days (C) Statistics were performed using Student t-test. * p < 0.05, n = 5. […] Daily (14 days) images, 30 in total, of spheroid growth in each well (JULISdays) were taken (D) Spheroid growth was monitored by measuring DsRed fluorescence (PheraStar) for 14 days (E) Scale bar = 250 µM. […]

[2] = system: HD-MB03 spheroids expressing DsRed on mouse cerebellar slices; assay: Ex vivo cerebellar organotypic model; details: 5 µM C29 daily for five days, after fourteen days
Text: as §5, §6

SMILES: O=C(Nc1cccc(Cl)c1)Nc1nc2ccc([N+](=O)[O-])cc2s1 [C29, 1-(3-chlorophenyl)-3-(6-nitrobenzo[d]thiazol-2-yl) urea]
- Clone formation (ONS-76 cells; ONS-76, 1 µM): some clones were maintained
- Clone formation (ONS-76 cells; ONS-76, 2.5 µM): disappeared completely
- Clone formation (Daoy cells): inhibited clone formation
- Clone formation (HD-MB03 cells): inhibited clone formation
- Reduction of tumour expansion [1]: 28.9 ± 4.5%
- Reduction of tumour expansion [2]: 34.4 ± 8.8%
